Test results from PMC6271545, “Comparative Pharmacokinetics Study of Sinomenine in Rats after Oral Administration of Sinomenine Monomer and Sinomenium Acutum Extract” (Molecules, 2014).

Test: Pharmacokinetics of sinomenine in rat plasma after oral administration of sinomenine monomer and Sinomenium acutum extract
Details: male, Wistar

COC1=C[C@H]2[C@H]3Cc4ccc(OC)c(O)c4[C@@]2(CCN3C)CC1=O [Sinomenine, 7,8-didehydro-4-hydroxy-3,7-dimethoxy-17-methylmorphinane-6-one]
AUC(0-inf) (30 mg/kg): 32800 ± 5370 ng·h/mL | AUC(0-t) (30 mg/kg): 29200 ± 4060 ng·h/mL | CL/F (30 mg/kg): 15.6 mL/min/kg | Cmax (30 mg/kg): 5240 ± 390 ng/mL | MRT inf (30 mg/kg): 7.3 ± 0.889 h | Tmax (30 mg/kg): 1.08 ± 0.204 h | half-life (30 mg/kg): 4.88 ± 0.635 h | AUC(0-inf) (60 mg/kg): 94000 ± 11200 ng·h/mL | AUC(0-t) (60 mg/kg): 78900 ± 5130 ng·h/mL | CL/F (60 mg/kg): 10.8 mL/min/kg | Cmax (60 mg/kg): 11600 ± 942 ng/mL | MRT inf (60 mg/kg): 8.8 ± 1.91 h | Tmax (60 mg/kg): 1.5 ± 0.316 h | half-life (60 mg/kg): 5.77 ± 1.59 h
